From paper PMC10970644, “Molecular Pharmacology of Gelsemium Alkaloids on Inhibitory Receptors” (International Journal of Molecular Sciences, 2024)

Assays:
Format in all cases: cell-based
chimeric α2α1 GlyR = target: T1, chimeric α2α1 GlyR (Rattus norvegicus, UniProt P07727+P22771, A288G/A330S/F348L/L351F/V274I)
T1 construct: Relevance of the ECD for the subunit-specific actions of gelsemine on α1GlyRs; fusion partner: GlyR α1 transmembrane and C-terminal part (Glra1, printed Q546L7); expressed in transfected cells; host or cells: HEK293 (ATCC CRL-1573)
T1 sequence (P22771+P07727 with tags, fused parts or gaps P22771:V274I/P22771:A288G/P22771:A330S/P22771:F348L/P22771:L351F): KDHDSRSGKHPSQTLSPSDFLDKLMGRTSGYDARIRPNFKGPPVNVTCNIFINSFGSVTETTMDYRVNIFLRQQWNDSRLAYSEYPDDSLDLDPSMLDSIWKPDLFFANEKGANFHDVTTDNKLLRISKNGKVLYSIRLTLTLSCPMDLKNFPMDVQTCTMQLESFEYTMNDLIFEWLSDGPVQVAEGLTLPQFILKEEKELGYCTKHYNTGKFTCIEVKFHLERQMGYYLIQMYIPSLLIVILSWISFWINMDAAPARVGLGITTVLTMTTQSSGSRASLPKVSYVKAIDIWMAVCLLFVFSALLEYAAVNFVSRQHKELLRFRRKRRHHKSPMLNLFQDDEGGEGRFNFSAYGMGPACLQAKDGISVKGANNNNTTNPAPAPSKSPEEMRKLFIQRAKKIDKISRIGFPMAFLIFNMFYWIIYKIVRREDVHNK
Procedure: (§1) The cells were transfected with plasmids encoding the following proteins: (i). rat GlyR α (1, 2, 3) subunits alone or combined with rat β subunits (Uniprot Accession Numbers: Q546L7, P22771, P20236, P20781); and (ii). rat GABAAR α1 combined with rat β2 and γ2 subunits (Uniprot Accession Numbers: P62813, P63138, P18508). The EGFP expression was used as a marker of successful protein expression. The transfection was performed using Lipofectamine 2000 (Invitrogen, ThermoFisher, Carlsbad, CA, USA) using the fabricant protocol. The plasmids used to express GlyRs and GABAARs have been previously described. To track the successful expression of GlyR β subunits and the GABAA γ2 or β2 subunit, these proteins were subcloned in the pIRES2-EGFP vector. The transfection ratio to obtain β-containing GlyRs was 1:5 of α:β, while the expression of γ2-containing GABAA receptors was 1:2:5 of α:β:γ2 [14, 15]. Chimeric GlyRs were described in a previous report. Site directed mutagenesis was performed by Charm Gene Science Mutagenex LLC. (Cumming, GA, USA). All the constructs were checked by full-length sequencing (SNPSaurus, Eugene, OR, USA).
In brief, patch electrodes (3–4 MΩ) were pulled from borosilicate glasses in a PC-100 puller (Narishige, Tokyo, Japan); then, they were filled with an intracellular solution, which contained (in mM) 120 CsCl, 8 EGTA, 10 HEPES (pH 7.4), 4 MgCl2, 0.5 GTP, and 2 ATP. The extracellular solution contained (in mM) 140 NaCl, 5.4 KCl, 2.0 CaCl2, 1.0 MgCl2, 10 HEPES (pH 7.4), and 10 glucose. Whole-cell patch-clamp recordings were performed at −60 mV with an Axoclamp 200B (Molecular Devices, Sunnyvale, CA, USA) or with HEKA EPC-10 (HEKA Elektronik GmbH, Reutlingen, Germany) amplifiers. […] Brief (3–5 s) pulses of agonist together with alkaloids were applied to cells. Stock solutions of the alkaloids were prepared in high purity distilled water. Aliquots of these stock solutions were diluted in reservoirs containing extracellular solution. […] The concentration–response curve parameters for the alkaloid inhibition (IC50, nH, and the maximal current inhibition) were obtained from the fitted curve of normalized concentration–response data points to the equation Iagonist = Imax (agonist)nH/((agonist)nH + (EC50)nH). The IC50 curves are best-fit mean ± SE from pooled data. […] The concentration of agonist corresponds to the sub-saturating agonist concentration used to obtain the IC50 for each alkaloid on a given GlyR subtype.

α1 GlyR = target: T2, α1 GlyR (Rattus norvegicus, UniProt P07727); assay: cell-based
T2 construct: expressed in transfected cells; host or cells: HEK293 (ATCC CRL-1573)
T2 sequence (P07727 29-457): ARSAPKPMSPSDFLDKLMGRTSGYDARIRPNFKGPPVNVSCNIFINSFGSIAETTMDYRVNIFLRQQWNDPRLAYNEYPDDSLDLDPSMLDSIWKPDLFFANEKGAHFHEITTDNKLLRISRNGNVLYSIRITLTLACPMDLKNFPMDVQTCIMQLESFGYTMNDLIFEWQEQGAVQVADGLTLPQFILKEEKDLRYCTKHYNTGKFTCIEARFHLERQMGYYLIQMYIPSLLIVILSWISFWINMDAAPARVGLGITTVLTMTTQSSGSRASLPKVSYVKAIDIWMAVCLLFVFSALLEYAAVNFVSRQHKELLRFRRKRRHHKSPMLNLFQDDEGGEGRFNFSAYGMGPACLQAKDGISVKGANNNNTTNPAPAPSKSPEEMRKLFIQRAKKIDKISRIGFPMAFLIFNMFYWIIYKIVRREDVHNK
Procedure: as §1
(§2) In brief, patch electrodes (3–4 MΩ) were pulled from borosilicate glasses in a PC-100 puller (Narishige, Tokyo, Japan); then, they were filled with an intracellular solution, which contained (in mM) 120 CsCl, 8 EGTA, 10 HEPES (pH 7.4), 4 MgCl2, 0.5 GTP, and 2 ATP. The extracellular solution contained (in mM) 140 NaCl, 5.4 KCl, 2.0 CaCl2, 1.0 MgCl2, 10 HEPES (pH 7.4), and 10 glucose. Whole-cell patch-clamp recordings were performed at −60 mV with an Axoclamp 200B (Molecular Devices, Sunnyvale, CA, USA) or with HEKA EPC-10 (HEKA Elektronik GmbH, Reutlingen, Germany) amplifiers. […] Brief (3–5 s) pulses of agonist together with alkaloids were applied to cells. Stock solutions of the alkaloids were prepared in high purity distilled water. Aliquots of these stock solutions were diluted in reservoirs containing extracellular solution. […] The concentration–response curve parameters for the alkaloid inhibition (IC50, nH, and the maximal current inhibition) were obtained from the fitted curve of normalized concentration–response data points to the equation Iagonist = Imax (agonist)nH/((agonist)nH + (EC50)nH). The IC50 curves are best-fit mean ± SE from pooled data. […] The inhibition constant (Ki) was calculated using the Cheng–Prusoff equation (Ki = IC50/((2 + ([Agonist]/EC50)^nH)^1/nH − 1). The concentration of agonist corresponds to the sub-saturating agonist concentration used to obtain the IC50 for each alkaloid on a given GlyR subtype.

α2β GlyR = target: T3, α2β GlyR (Rattus norvegicus, UniProt P20781+P22771); assay: cell-based
T3 construct: The cells were transfected with plasmids encoding the following proteins; expressed in transfected cells; host or cells: HEK293 (ATCC CRL-1573)
T3 sequence (P22771 28-452): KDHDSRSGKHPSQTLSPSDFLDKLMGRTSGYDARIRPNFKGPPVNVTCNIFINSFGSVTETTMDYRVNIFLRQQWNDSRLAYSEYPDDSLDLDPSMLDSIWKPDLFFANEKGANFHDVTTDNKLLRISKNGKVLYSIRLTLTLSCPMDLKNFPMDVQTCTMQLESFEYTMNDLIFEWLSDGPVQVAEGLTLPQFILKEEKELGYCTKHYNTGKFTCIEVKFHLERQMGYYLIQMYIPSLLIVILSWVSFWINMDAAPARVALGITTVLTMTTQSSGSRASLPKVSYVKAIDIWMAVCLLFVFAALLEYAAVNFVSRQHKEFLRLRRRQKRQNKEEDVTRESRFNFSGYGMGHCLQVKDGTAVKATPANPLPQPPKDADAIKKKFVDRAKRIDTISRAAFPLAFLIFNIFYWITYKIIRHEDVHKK
T3 sequence (P20781 23-496): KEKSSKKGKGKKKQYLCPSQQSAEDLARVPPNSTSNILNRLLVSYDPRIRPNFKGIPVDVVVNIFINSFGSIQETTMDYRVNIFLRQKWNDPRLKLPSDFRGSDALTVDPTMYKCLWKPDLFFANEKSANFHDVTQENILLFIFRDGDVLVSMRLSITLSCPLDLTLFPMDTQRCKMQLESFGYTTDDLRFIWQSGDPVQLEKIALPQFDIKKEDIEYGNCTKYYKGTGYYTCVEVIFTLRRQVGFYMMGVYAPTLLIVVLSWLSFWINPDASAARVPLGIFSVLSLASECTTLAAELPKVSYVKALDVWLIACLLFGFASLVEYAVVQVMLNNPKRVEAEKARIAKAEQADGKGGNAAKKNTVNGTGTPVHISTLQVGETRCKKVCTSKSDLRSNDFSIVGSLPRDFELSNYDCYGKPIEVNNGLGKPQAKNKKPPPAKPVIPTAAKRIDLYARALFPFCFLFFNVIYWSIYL
Procedure: as §1, §2

[1] = Hill coefficient of inhibition curve
[2] = calculated using the Cheng–Prussof equation

C=C[C@]12CN(C)[C@@H]3[C@H]4CO[C@H](C[C@H]41)[C@]1(C(=O)Nc4ccccc41)[C@@H]32 [gelsemine]
effect on glycine-evoked currents (in words) (chimeric α2α1 GlyR; 50 μM gelsemine, 65 μM glycine): inhibitory effect
effect on glycine-evoked currents (in words) (α1 GlyR; wild-type, 10 μM gelsemine, 35 μM glycine): potentiated

NCC(=O)O [glycine, reference compound]
EC50 (chimeric α2α1 GlyR; read-out: EC50 of agonist): 104 ± 9 µM
EC50 (α2β GlyR; read-out: EC50 of agonist): 105 ± 9 µM

C=C[C@@]12CN(C)[C@H]3C[C@]14C(=Nc1ccccc14)[C@H]1C[C@@H]2[C@@H]3CO1 [koumine]
IC50 (α2β GlyR): 23.6 ± 8.3 µM
nH (α2β GlyR; [1]): 1.3 ± 0.6
Ki (α2β GlyR; [2]): 57.4 ± 4 µM
IC50 (α1 GlyR): 31.5 ± 1.7 µM
nH (α1 GlyR; [1]): 1.7 ± 0.1
Ki (α1 GlyR; [2]): 53.1 ± 17.1 µM
Maximal Modulation (α1 GlyR; percentage change of glycine-evoked current): −95.0 ± 1.5%
